Results reported in PubChem BioAssay (NCI).
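Protocol summary: plate cells (96-well), add compound at 5 concentrations, incubate 48 h, interpolate endpoints linearly. Abbreviation: GI50, concentration required for 50% inhibition of growth. TGI denotes the concentration required for complete inhibition of growth.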

Columns and labels:
Assay in all cases: inhibition of tumour cell growth, NCI panel, 48 h; in the data active means GI50 below about 0.43 µM; inactive means the rest
[1] = system: 786-0 renal
[2] = system: A498 renal
[3] = system: A549 NSCLC
[4] = system: ACHN renal
[5] = system: BT-549 breast
[6] = system: CAKI-1 renal
[7] = system: CCRF-CEM leukemia
[8] = system: COLO 205 colon
[9] = system: DU-145 prostate
[10] = system: EKVX NSCLC
[11] = system: HCC-2998 colon
[12] = system: HCT-116 colon
[13] = system: HCT-15 colon
[14] = system: HL-60(TB) leukemia
[15] = system: HOP-62 NSCLC
[16] = system: HOP-92 NSCLC
[17] = system: HS 578T breast
[18] = system: HT29 colon
[19] = system: IGROV1 ovarian
[20] = system: K-562 leukemia
[21] = system: KM12 colon
[22] = system: LOX IMVI melanoma
[23] = system: M14 melanoma
[24] = system: MALME-3M melanoma
[25] = system: MCF7 breast
[26] = system: MDA-MB-231 breast
[27] = system: MDA-MB-435
[28] = system: MOLT-4 leukemia
[29] = system: NCI-H226 lung
[30] = system: NCI-H23 lung
[31] = system: NCI-H460 lung
[32] = system: NCI-H522 lung
[33] = system: NCI/ADR-RES ovarian
[34] = system: OVCAR-3 ovarian
[35] = system: OVCAR-4 ovarian
[36] = system: OVCAR-5 ovarian
[37] = system: OVCAR-8 ovarian
[38] = system: PC-3 prostate
[39] = system: RPMI-8226 leukemia
[40] = system: SF-268 CNS
[41] = system: SF-295 CNS
[42] = system: SF-539 CNS
[43] = system: SK-MEL-2 melanoma
[44] = system: SK-MEL-28 melanoma
[45] = system: SK-MEL-5 melanoma
[46] = system: SK-OV-3 ovarian
[47] = system: SN12C renal
[48] = system: SNB-19 CNS
[49] = system: SNB-75 CNS
[50] = system: SR leukemia
[51] = system: SW-620 colon
[52] = system: T-47D breast
[53] = system: TK-10 renal
[54] = system: U251 CNS
[55] = system: UACC-257 melanoma
[56] = system: UACC-62 melanoma
[57] = system: UO-31 renal

Brc1cccc(-c2cc(-c3ccc4nccnc4c3)[nH]n2)c1
1860 nM: TGI [2]
> 84.2 µM: TGI [12]
3.93 µM: TGI [8]
> 200 µM: TGI [9]
75.2 µM: TGI [54]
> 60 µM: TGI [31]
1750 nM: TGI [14]
11.7 µM: TGI [45]
23.7 µM: TGI [26]
active: GI50 [2] 418 nM | GI50 [8] 286 nM | GI50 [13] 165 nM | GI50 [18] 174 nM | GI50 [20] 215 nM | GI50 [21] 153 nM | GI50 [25] 413 nM | GI50 [27] 74.3 nM | GI50 [32] 412 nM | GI50 [33] 318 nM | GI50 [50] 139 nM | GI50 [51] 273 nM
> 165 µM: TGI [18]
412 nM: TGI [27]
34.3 µM: TGI [33]
> 250 µM: TGI [1] | TGI [3] | TGI [4] | TGI [5] | TGI [6] | TGI [7] | TGI [10] | TGI [11] | TGI [13] | TGI [15] | TGI [16] | TGI [17] | TGI [19] | TGI [20] | TGI [22] | TGI [23] | TGI [24] | TGI [25] | TGI [29] | TGI [30] | TGI [32] | TGI [35] | TGI [36] | TGI [37] | TGI [38] | TGI [40] | TGI [41] | TGI [43] | TGI [44] | TGI [46] | TGI [47] | TGI [48] | TGI [51] | TGI [52] | TGI [53] | TGI [55] | TGI [56] | TGI [57]
inactive: GI50 [1] 1660 nM | GI50 [3] 860 nM | GI50 [4] 1720 nM | GI50 [5] 2150 nM | GI50 [6] 599 nM | GI50 [7] 864 nM | GI50 [9] 1090 nM | GI50 [10] 4.24 µM | GI50 [11] 3.25 µM | GI50 [12] 603 nM | GI50 [14] 519 nM | GI50 [15] 1020 nM | GI50 [16] 4.54 µM | GI50 [17] 1020 nM | GI50 [19] 877 nM | GI50 [22] 1420 nM | GI50 [23] 430 nM | GI50 [24] 1300 nM | GI50 [26] 2940 nM | GI50 [28] 1520 nM | GI50 [30] 1330 nM | GI50 [31] 729 nM | GI50 [34] 485 nM | GI50 [35] 2050 nM | GI50 [36] 2640 nM | GI50 [37] 1390 nM | GI50 [38] 680 nM | GI50 [39] 865 nM | GI50 [40] 3.68 µM | GI50 [41] 1110 nM | GI50 [42] 764 nM | GI50 [43] 1550 nM | GI50 [44] 4.87 µM | GI50 [45] 783 nM | GI50 [46] 845 nM | GI50 [47] 1390 nM | GI50 [48] 1410 nM | GI50 [49] 674 nM | GI50 [52] 1240 nM | GI50 [53] 2950 nM | GI50 [54] 938 nM | GI50 [56] 1350 nM | GI50 [57] 1900 nM
2380 nM: TGI [49]
> 145 µM: TGI [28]
> 94.7 µM: TGI [21]
> 104 µM: TGI [50]
76.4 µM: TGI [39]
3.28 µM: TGI [42]
